Converted amounts (≈) assume the structure as drawn.
What was measured:
[1] = system: M. tuberculosis QcrB M342T mutant strain; assay type: cell-based, Mycobacterium tuberculosis
[2] = system: M. tuberculosis QcrB T313I mutant strain; assay type: cell-based, Mycobacterium tuberculosis

`NC(=O)c1sc(N2CCOCC2)cc1OCCc1ccccc1` [Compound 1, 5-Morpholino-3-phenethoxythiophene-2-carboxamide] was tested, and the “MIC M342T” value [1] was 25 µM (≈ 8.31 µg/mL), the “fold shift M342T” value [1] was 19 and the “MIC T313I” value [2] was 53 µM (≈ 17.6 µg/mL). The “fold shift T313I” value [2] was 41.

In the case of `CNC(=O)c1sc(N2CCOCC2)cc1OCCc1ccccc1` [Compound 21, N-Methyl-5-morpholino-3-(2-phenylethoxy)thiophene-2-carboxamide], the “MIC M342T” value [1] is reported as 4.8 µM (≈ 1.66 µg/mL), the “fold shift M342T” value [1] is reported as 60 and the “MIC T313I” value [2] is reported as greater than 20 µM. The “fold shift T313I” value [2] was greater than 250.

For `NC(=O)c1sc(-c2ccncc2)cc1OCCc1ccccc1` [Compound 35, 3-(2-Phenylethoxy)-5-(4-pyridyl)thiophene-2-carboxamide], the “MIC M342T” value [1] was greater than 20 µM, the “fold shift M342T” value [1] was greater than 3 and the “MIC T313I” value [2] was greater than 50 µM. The “fold shift T313I” value [2] was greater than 8.6.

`NC(=O)c1sc(N2CCOCC2)cc1OCCc1ccc(OC(F)(F)F)cc1` [Compound 37, 5-Morpholino-3-[2-[4-(trifluoromethoxy)phenyl]ethoxy]thiophene-2-carboxamide] was tested, and the “MIC T313I” value [2] was 11 µM (≈ 4.58 µg/mL) and the “fold shift T313I” value [2] was 46.

For `NC(=O)c1sc(N2CCOCC2)cc1OCCc1cccc(F)c1` [Compound 39, 3-[2-(3-Fluorophenyl)ethoxy]-5-morpholinothiophene-2-carboxamide], the “MIC M342T” value [1] was 7 µM (≈ 2.45 µg/mL), the “fold shift M342T” value [1] was 14 and the “MIC T313I” value [2] was 59 µM (≈ 20.7 µg/mL). For the same compound, the “fold shift T313I” value [2] was 110.
